These results are taken from patent US10072017B2, “Compounds and methods for the treatment of cystic fibrosis” (Flatley Discovery Lab, LLC, priority 2015, dated 2018).

Each structure is given as a SMILES string.

In this assay the target is T1, CFTR (Homo sapiens, UniProt P13569, DEL508-508).
T1 construct: Primary CF airway epithelial cells were obtained from the UNC Cystic Fibrosis Tissue Procurement and Cell Culture Core; host or cells: primary CF airway epithelial cells
The assay is described as follows: Equivalent current assay in Primary CF airway epithelial cells (NAUC). The assay is classed as cell-based. The settings on record: 24 h, normalized to VX809 (3 μM) positive control; for Nauc @ 3 μM: 3 μM test compound; for Nauc @ 10 μM: 10 μM test compound. Put shortly:
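NAUC is the area under the curve from forskolin (10 μM) plus VX770 (1 μM) addition to CFTR-172 (20 μM) block, after benzamil (5 μM). It is corrected for vehicle and scaled to 3 μM VX809 as 1.0 and DMSO as 0.0. Cells were exposed for 24 h to compounds with VX809; medians of ≥4 replicates were fitted sigmoidally.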

T1 sequence (P13569 with tags, fused parts or gaps DEL508-508): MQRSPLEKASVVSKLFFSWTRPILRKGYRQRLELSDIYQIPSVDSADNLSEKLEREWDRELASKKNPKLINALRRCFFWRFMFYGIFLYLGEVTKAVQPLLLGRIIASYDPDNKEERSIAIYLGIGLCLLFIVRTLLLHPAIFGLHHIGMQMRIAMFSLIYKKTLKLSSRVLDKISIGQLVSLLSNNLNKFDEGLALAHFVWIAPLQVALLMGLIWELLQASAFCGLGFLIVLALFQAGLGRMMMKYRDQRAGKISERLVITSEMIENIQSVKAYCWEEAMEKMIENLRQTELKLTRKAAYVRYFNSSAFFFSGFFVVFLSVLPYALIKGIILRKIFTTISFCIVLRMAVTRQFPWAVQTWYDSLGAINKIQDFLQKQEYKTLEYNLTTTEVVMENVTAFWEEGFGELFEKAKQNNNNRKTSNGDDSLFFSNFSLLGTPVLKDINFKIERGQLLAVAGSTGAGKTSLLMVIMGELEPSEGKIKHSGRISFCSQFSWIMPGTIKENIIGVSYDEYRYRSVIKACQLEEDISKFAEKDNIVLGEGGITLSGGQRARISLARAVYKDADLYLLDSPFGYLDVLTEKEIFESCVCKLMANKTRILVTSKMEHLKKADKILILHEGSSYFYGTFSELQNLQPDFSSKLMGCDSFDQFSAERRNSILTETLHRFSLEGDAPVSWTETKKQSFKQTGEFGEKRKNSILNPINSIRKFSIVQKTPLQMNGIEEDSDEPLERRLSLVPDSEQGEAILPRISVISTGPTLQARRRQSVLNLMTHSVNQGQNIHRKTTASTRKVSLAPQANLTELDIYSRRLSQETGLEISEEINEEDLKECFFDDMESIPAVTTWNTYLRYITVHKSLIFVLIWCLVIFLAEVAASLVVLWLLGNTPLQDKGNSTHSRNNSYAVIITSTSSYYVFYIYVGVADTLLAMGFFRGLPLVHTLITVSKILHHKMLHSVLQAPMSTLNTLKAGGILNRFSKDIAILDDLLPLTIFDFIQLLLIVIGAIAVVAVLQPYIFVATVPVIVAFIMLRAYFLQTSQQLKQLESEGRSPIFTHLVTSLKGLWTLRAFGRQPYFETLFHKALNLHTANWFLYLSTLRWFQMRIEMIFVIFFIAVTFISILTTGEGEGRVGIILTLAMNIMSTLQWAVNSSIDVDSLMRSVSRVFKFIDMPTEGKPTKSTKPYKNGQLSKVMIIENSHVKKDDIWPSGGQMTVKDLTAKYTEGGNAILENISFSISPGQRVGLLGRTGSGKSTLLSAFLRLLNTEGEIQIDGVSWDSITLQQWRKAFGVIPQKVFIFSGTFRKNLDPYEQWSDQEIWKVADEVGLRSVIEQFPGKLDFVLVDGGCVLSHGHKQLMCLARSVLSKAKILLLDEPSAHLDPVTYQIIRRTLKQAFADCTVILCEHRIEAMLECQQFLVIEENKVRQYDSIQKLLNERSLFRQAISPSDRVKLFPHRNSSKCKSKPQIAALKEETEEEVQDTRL

Consider `C[C@]1(OCc2ccccc2)CC2C3C(=O)N(c4cc(Cl)cc(Cl)c4)C(=O)C3C3(C(=O)Nc4c(Cl)cc(Cl)cc43)N2C1` (single isomer, unassigned) [Example 240], for which the “Nauc @ 3 μM” value is given as “+++ (NAUC “+++” refers to an observed NAUC >170% of positive control)” and the “Nauc @ 10 μM” value is on record as “+ (NAUC “+” refers to an observed NAUC <140% of positive control)”.
For the compound `C[C@]1(OCc2ccccc2)CC2C3C(=O)N(c4cc(Cl)cc(Cl)c4)C(=O)C3C3(C(=O)Nc4c(Cl)cc(Cl)cc43)N2C1` (single isomer, unassigned) [Example 241], the “Nauc @ 3 μM” value was “+++ (NAUC “+++” refers to an observed NAUC >170% of positive control)” and the “Nauc @ 10 μM” value is reported as “+++ (NAUC “+++” refers to an observed NAUC >170% of positive control)”.
On to `CC(C)C1NC2(C(=O)Nc3c(Cl)cc(Cl)cc32)C2C(=O)N(c3cc(Cl)cc(Cl)c3)C(=O)C12` (single isomer, unassigned) [Example 242], for which the “Nauc @ 3 μM” value is “+++ (NAUC “+++” refers to an observed NAUC >170% of positive control)” and the “Nauc @ 10 μM” value is given as “+++ (NAUC “+++” refers to an observed NAUC >170% of positive control)”.
For `O=C1C2C3C[C@H](F)CN3C3(C(=O)Nc4c(Cl)cc(Cl)cc43)C2C(=O)N1c1cc(Cl)cc(Cl)c1` (single isomer, unassigned) [Example 243], the “Nauc @ 3 μM” value was “+++ (NAUC “+++” refers to an observed NAUC >170% of positive control)” and the “Nauc @ 10 μM” value was “+++ (NAUC “+++” refers to an observed NAUC >170% of positive control)”.
Turning to `C[C@]1(F)CC2C3C(=O)N(c4cc(Cl)cc(Cl)c4)C(=O)C3C3(C(=O)Nc4c(Cl)cc(Cl)cc43)N2C1` (single isomer, unassigned) [Example 249], the “Nauc @ 3 μM” value is listed as “++ (NAUC “++” refers to an observed NAUC 170-140% of positive control)” and the “Nauc @ 10 μM” value is “+ (NAUC “+” refers to an observed NAUC <140% of positive control)”.
In the same order, the values of `O=C1C2C3CCCN3C3(C(=O)Nc4c(Cl)cc(Cl)cc43)C2C(=O)N1c1cc(Cl)c(OC(F)F)c(Cl)c1` (single isomer, unassigned) [Example 250] are “+++ (NAUC “+++” refers to an observed NAUC >170% of positive control)” and “+++ (NAUC “+++” refers to an observed NAUC >170% of positive control)”.
As to `COc1cc(Cl)cc(N2C(=O)C3C4C[C@](C)(F)CN4C4(C(=O)Nc5c(Cl)cc(Cl)cc54)C3C2=O)c1` (single isomer, unassigned) [Example 254], the “Nauc @ 3 μM” value is “+++ (NAUC “+++” refers to an observed NAUC >170% of positive control)” and the “Nauc @ 10 μM” value was “+++ (NAUC “+++” refers to an observed NAUC >170% of positive control)”.
In the case of `CC1(C)CC2C3C(=O)N(c4cc(Cl)c(OC(F)F)c(Cl)c4)C(=O)C3C3(C(=O)Nc4c(Cl)cc(Cl)cc43)N2C1` (single isomer, unassigned) [Example 255], the “Nauc @ 3 μM” value is listed as “+++ (NAUC “+++” refers to an observed NAUC >170% of positive control)” and the “Nauc @ 10 μM” value is on record as “+++ (NAUC “+++” refers to an observed NAUC >170% of positive control)”.
`COc1cc(Cl)cc(N2C(=O)C3C4C[C@](C)(O)CN4C4(C(=O)Nc5c(Cl)cc(Cl)cc54)C3C2=O)c1` (single isomer, unassigned) [Example 256]: the “Nauc @ 3 μM” value is given as “++ (NAUC “++” refers to an observed NAUC 170-140% of positive control)” and the “Nauc @ 10 μM” value is recorded as “+++ (NAUC “+++” refers to an observed NAUC >170% of positive control)”.
For `CCC(C)C1NC2(C(=O)Nc3c(Cl)cc(Cl)cc32)C2C(=O)N(c3cc(Cl)cc(OC)c3)C(=O)C12` (centres unmarked) [Example 7, 3′-(Sec-butyl)-5,7-dichloro-5′-(3-chloro-5-methoxyphenyl)-2′,3′,3a′,6a′-tetrahydro-4′H-spiro[indoline-3,1′-pyrrolo[3,4-c]pyrrole]-2,4′,6′(5′H)-trione], the “Nauc @ 3 μM” value was “++ (NAUC “++” refers to an observed NAUC 170-140% of positive control)” and the “Nauc @ 10 μM” value is given as “++ (NAUC “++” refers to an observed NAUC 170-140% of positive control)”.
Consider `C[C@]1(O)CC2C3C(=O)N(c4nnn[nH]4)C(=O)C3C3(C(=O)Nc4c(Cl)cc(Cl)cc43)N2C1` (stereo partly drawn) [Example 8, (7′S)-5,7-Dichloro-7′-hydroxy-7′-methyl-2′-(1H-tetrazol-5-yl)-3a′,6′,7′,8′,8a′,8b′-hexahydro-1′H-spiro[indoline-3,4′-pyrrolo[3,4-a]pyrrolizine]-1′,2,3′(2′H)-trione], for which the “Nauc @ 3 μM” value is reported as “+++ (NAUC “+++” refers to an observed NAUC >170% of positive control)” and the “Nauc @ 10 μM” value is “+ (NAUC “+” refers to an observed NAUC <140% of positive control)”.
The like results for `O=C1C2C(C(=O)N1c1cc(Cl)cc(Cl)c1)C(c1ccc(F)nc1)N1CCCC21` (centres unmarked) [Example 9, 2-(3,5-Dichlorophenyl)-4-(6-fluoropyridin-3-yl)hexahydropyrrolo[3,4-a]pyrrolizine-1,3(2H,4H)-dione] were, in that order, “+ (NAUC “+” refers to an observed NAUC <140% of positive control)” and “++ (NAUC “++” refers to an observed NAUC 170-140% of positive control)”.
In the same order, the values of `C[C@]1(F)CC2C3C(=O)N(c4cc(Cl)cc(Cl)c4)C(=O)C3C3(C(=O)Nc4c(Cl)cc(Cl)cc43)N2C1` (stereo partly drawn) [Example 10, (7′S)-5,7-dichloro-2′-(3,5-dichlorophenyl)-7′-fluoro-7′-methyl-3a′,6′,7′,8′,8a′,8b′-hexahydro-1′H-spiro[indoline-3,4′-pyrrolo[3,4-a]pyrrolizine]-1′,2,3′(2′H)-trione] are “+++ (NAUC “+++” refers to an observed NAUC >170% of positive control)” and “+++ (NAUC “+++” refers to an observed NAUC >170% of positive control)”.
The like results for `O=C1C2C3CCCN3C3(C(=O)Nc4c(Cl)cc(Cl)cc43)C2C(=O)N1c1cccc(Cl)c1` (centres unmarked) [Example 11] were, in that order, “+ (NAUC “+” refers to an observed NAUC <140% of positive control)” and “+++ (NAUC “+++” refers to an observed NAUC >170% of positive control)”.
Take `Cc1cccc2c1NC(=O)C21C2C(=O)N(c3cc(Cl)cc(Cl)c3)C(=O)C2C2CCCN21` (centres unmarked) [Example 12]: the “Nauc @ 3 μM” value is on record as “+ (NAUC “+” refers to an observed NAUC <140% of positive control)” and the “Nauc @ 10 μM” value is “++ (NAUC “++” refers to an observed NAUC 170-140% of positive control)”.
On to `N#Cc1cccc(N2C(=O)C3C4CCCN4C4(C(=O)Nc5c(Cl)cc(Cl)cc54)C3C2=O)c1` (centres unmarked) [Example 14], for which the “Nauc @ 3 μM” value is given as “+ (NAUC “+” refers to an observed NAUC <140% of positive control)” and the “Nauc @ 10 μM” value is reported as “++ (NAUC “++” refers to an observed NAUC 170-140% of positive control)”.
`O=C1C2C3CCCN3C3(C(=O)Nc4c(Cl)cc(Cl)cc43)C2C(=O)N1c1cccc(C(F)(F)F)c1` (centres unmarked) [Example 15]: the “Nauc @ 3 μM” value was “++ (NAUC “++” refers to an observed NAUC 170-140% of positive control)” and the “Nauc @ 10 μM” value was “+++ (NAUC “+++” refers to an observed NAUC >170% of positive control)”.
For `O=C1C2C3CCCN3C3(C(=O)Nc4c(Cl)cc(Cl)cc43)C2C(=O)N1c1cc(C(F)(F)F)cc(C(F)(F)F)c1` (centres unmarked) [Example 16], the “Nauc @ 3 μM” value is listed as “+++ (NAUC “+++” refers to an observed NAUC >170% of positive control)” and the “Nauc @ 10 μM” value is “+++ (NAUC “+++” refers to an observed NAUC >170% of positive control)”.
As for `CC(C)C1NC2(C(=O)Nc3c(Cl)cc(Cl)cc32)C2C(=O)N(c3cc(Cl)cc(Cl)c3)C(=O)C12` (centres unmarked) [Example 17], the “Nauc @ 3 μM” value is on record as “+ (NAUC “+” refers to an observed NAUC <140% of positive control)” and the “Nauc @ 10 μM” value is “++ (NAUC “++” refers to an observed NAUC 170-140% of positive control)”.
`O=C1C2C3CCCN3C3(C(=O)Nc4c(C(F)(F)F)cccc43)C2C(=O)N1c1cc(Cl)cc(Cl)c1` (centres unmarked) [Example 18]: the “Nauc @ 3 μM” value was “++ (NAUC “++” refers to an observed NAUC 170-140% of positive control)” and the “Nauc @ 10 μM” value was “+ (NAUC “+” refers to an observed NAUC <140% of positive control)”.
For `NC(=O)c1cccc(N2C(=O)C3C4CCCN4C4(C(=O)Nc5c(Cl)cc(Cl)cc54)C3C2=O)c1` (centres unmarked) [Example 19], the “Nauc @ 3 μM” value was “+ (NAUC “+” refers to an observed NAUC <140% of positive control)” and the “Nauc @ 10 μM” value was “++ (NAUC “++” refers to an observed NAUC 170-140% of positive control)”.
As to `O=C1C2C3CCCN3C3(C(=O)Nc4c(Cl)cc(Cl)cc43)C2C(=O)N1c1cncc(Cl)c1` (centres unmarked) [Example 20], the “Nauc @ 3 μM” value is on record as “+ (NAUC “+” refers to an observed NAUC <140% of positive control)” and the “Nauc @ 10 μM” value is “++ (NAUC “++” refers to an observed NAUC 170-140% of positive control)”.
In the case of `O=C1C2C3CCCN3C3(C(=O)Nc4c(Cl)cc(Cl)cc43)C2C(=O)N1c1cc(F)cc(F)c1` (centres unmarked) [Example 21], the “Nauc @ 3 μM” value is reported as “++ (NAUC “++” refers to an observed NAUC 170-140% of positive control)” and the “Nauc @ 10 μM” value was “++ (NAUC “++” refers to an observed NAUC 170-140% of positive control)”.
With `O=C1C2C3c4ccccc4CN3C3(C(=O)Nc4c(Cl)cc(Cl)cc43)C2C(=O)N1c1cc(Cl)cc(Cl)c1` (centres unmarked) [Example 22], the “Nauc @ 3 μM” value was “+++ (NAUC “+++” refers to an observed NAUC >170% of positive control)” and the “Nauc @ 10 μM” value is reported as “+++ (NAUC “+++” refers to an observed NAUC >170% of positive control)”.
Turning to `O=C1C2C3CCCN3C3(C(=O)Nc4c(Cl)cc(Cl)cc43)C2C(=O)N1c1cccc2c1OC(F)(F)O2` (centres unmarked) [Example 23], the “Nauc @ 3 μM” value was “++ (NAUC “++” refers to an observed NAUC 170-140% of positive control)” and the “Nauc @ 10 μM” value is on record as “+ (NAUC “+” refers to an observed NAUC <140% of positive control)”.
